Laboratory results taken from patent publication US8026359B2, “Fungicidal heterocyclic amines” (E.I. du Pont de Nemours and Company, priority 2007, dated 2011).

Key:
Assay type in all cases: in vivo
[1] = tested on: Uncinula necator; experiment: Test N: grape powdery mildew, preventive spray on grape seedlings; details: 100 ppm (100 g/ha, 1000 L/ha), inoculated the following day, 100 = 100% disease control, 0 = no control relative to controls
Source text: (§1) General protocol for preparing test suspensions for Tests A-R: The test compounds were first dissolved in acetone in an amount equal to 3% of the final volume and then suspended at the desired concentration (in ppm) in acetone and purified water (50/50 mix) containing 250 ppm of the surfactant Trem® 014 (polyhydric alcohol esters). The resulting test suspensions were then used in tests A-R. In Tests A-M, compounds were sprayed as a 200 ppm test suspension (equivalent to a rate of 500 g/ha) or as a 40 ppm test suspension to the point of runoff on the test plants. In Tests N-R, compounds were sprayed as a 100 g/ha test suspension (equivalent to a rate of 100 ppm) on the test plants at an application volume of 1000 L/ha. The test suspension was sprayed on grape seedlings.

[2] = tested on: Erysiphe graminis f. sp. tritici; experiment: Test A: wheat powdery mildew, preventive spray on wheat seedlings
Procedure, shortened: (§2)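 Two spray concentrations are used, 40 ppm and 200 ppm, the latter matching a rate of 500 g/ha, applied until run-off. The carrier is half acetone, half purified water with 250 ppm surfactant, and acetone for initial dissolution makes up 3% of the volume.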

[3] = tested on: Alternaria solani; experiment: Test H: tomato early blight, preventive spray on seedlings; details: Alternaria solani, 168 h; 40 ppm (marked *); read-out: Test H disease control rating
Procedure, shortened: as §2

[4] = tested on: Magnaporthe grisea; details: 100 ppm (100 g/ha, 1000 L/ha), rice seedlings, inoculated the following day; 100 = 100% disease control, 0 = no control relative to controls
[5] = tested on: Fusarium graminearum; experiment: whole plant or invertebrate; details: for pest or weed control at 200 ppm: Fusarium graminearum, in Triticum aestivum, 192 h, read-out: Test E disease control rating
[6] = tested on: Puccinia recondita f. sp. tritici; experiment: Test B: wheat leaf rust, preventive spray on wheat seedlings; details: 200 ppm, 100 = 100% disease control, 0 = no control relative to controls; for pest or weed control at 200 ppm: Puccinia recondita, 192 h, read-out: Test B disease control rating
Procedure, shortened: as §2

[7] = tested on: Venturia inaequalis; experiment: Test O: apple scab, preventive spray on apple seedlings; details: 100 ppm (100 g/ha, 1000 L/ha), inoculated the following day, 100 = 100% disease control, 0 = no control relative to controls
Source text: as §1, with “apple” for “grape”

[8] = tested on: Septoria tritici; experiment: Test D: wheat leaf blotch, preventive spray on wheat seedlings; details: 200 ppm, 100 = 100% disease control, 0 = no control relative to controls; for pest or weed control at 200 ppm: Zymoseptoria tritici, 504 h, read-out: Test D disease control rating
Procedure, shortened: as §2

[9] = tested on: Colletotrichum orbiculare; experiment: Test I: cucumber Colletotrichum anthracnose, preventive spray on cucumber seedlings; details: 100 = 100% disease control, 0 = no control relative to controls; for pest or weed control at 200 ppm: Colletotrichum orbiculare, 144 h, read-out: Test I disease control rating
Procedure, shortened: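 Preventive foliar spray to run-off on cucumber seedlings, at 200 ppm (stated as equal to 500 g/ha) or 40 ppm. Test suspensions were made in acetone/water 50/50 containing 250 ppm Trem 014, after first dissolving compound in acetone at 3% of final volume.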

[10] = tested on: Rhizoctonia oryzae; experiment: Test P: rice sheath blight, preventive spray on rice seedlings; details: 100 ppm (100 g/ha, 1000 L/ha), inoculated the following day, 100 = 100% disease control, 0 = no control relative to controls
Source text: as §1, with “rice” for “grape”

[11] = tested on: Septoria nodorum; experiment: Test C: wheat glume blotch, preventive spray on wheat seedlings; details: 200 ppm, 100 = 100% disease control, 0 = no control relative to controls; for pest or weed control at 200 ppm: Parastagonospora nodorum, 216 h, read-out: Test C disease control rating
Procedure, shortened: as §2

[12] = tested on: Botrytis cinerea; experiment: Test F: tomato Botrytis, preventive spray on tomato seedlings
Procedure, shortened: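 Preventive run-off spray onto tomato seedlings at 200 ppm (equivalent to 500 g/ha) or 40 ppm. Suspensions: compound predissolved in acetone at 3% of final volume, then taken up in acetone/purified water 50/50 containing 250 ppm Trem® 014 surfactant.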

[13] = tested on: Plasmopara viticola; experiment: Test R: grape downy mildew, preventive spray on grape seedlings; details: 100 ppm (100 g/ha, 1000 L/ha), inoculated the following day, 100 = 100% disease control, 0 = no control relative to controls
Source text: as §1, with “seedlings. The following day the seedlings were inoculated with a spore suspension of Plasmopara viticola (the causal agent of grape downy mildew) and incubated in a saturated atmosphere at 20° C. for 24 h, then moved to a growth chamber at 20° C. for 7 days, after which time the test units were placed back into a saturated atmosphere at 20° C. for 24 h. Upon removal, disease ratings were made.” for “seedlings.”

[14] = tested on: Rhizoctonia oryzae; experiment: Test J: turf brown patch, preventive spray on creeping bent grass seedlings; details: 200 ppm; 100 = 100% disease control, 0 = no control relative to controls
Source text: General protocol for preparing test suspensions for Tests A-R: The test compounds were first dissolved in acetone in an amount equal to 3% of the final volume and then suspended at the desired concentration (in ppm) in acetone and purified water (50/50 mix) containing 250 ppm of the surfactant Trem® 014 (polyhydric alcohol esters). The resulting test suspensions were then used in tests A-R. In Tests A-M, compounds were sprayed as a 200 ppm test suspension (equivalent to a rate of 500 g/ha) or as a 40 ppm test suspension to the point of runoff on the test plants. In Tests N-R, compounds were sprayed as a 100 g/ha test suspension (equivalent to a rate of 100 ppm) on the test plants at an application volume of 1000 L/ha. The test suspension was sprayed to the point of run-off on creeping bent grass seedlings.

[15] = tested on: Plasmopara viticola; experiment: Test L: grape downy mildew, spray after inoculation of grape seedlings; details: 200 ppm; 100 = 100% disease control, 0 = no control relative to controls
Source text: General protocol for preparing test suspensions for Tests A-R: The test compounds were first dissolved in acetone in an amount equal to 3% of the final volume and then suspended at the desired concentration (in ppm) in acetone and purified water (50/50 mix) containing 250 ppm of the surfactant Trem® 014 (polyhydric alcohol esters). The resulting test suspensions were then used in tests A-R. In Tests A-M, compounds were sprayed as a 200 ppm test suspension (equivalent to a rate of 500 g/ha) or as a 40 ppm test suspension to the point of runoff on the test plants. In Tests N-R, compounds were sprayed as a 100 g/ha test suspension (equivalent to a rate of 100 ppm) on the test plants at an application volume of 1000 L/ha. Grape seedlings were inoculated with a spore suspension of Plasmopara viticola (the causal agent of grape downy mildew) and incubated in a saturated atmosphere at 20° C. for 24 h. After a short drying period, the test suspension was sprayed to the point of run-off on the grape seedlings and then moved to a growth chamber at 20° C. for 6 days, after which time the test units were placed back into a saturated atmosphere at 20° C. for 24 h. Upon removal, disease ratings were made.

[16] = tested on: Pythium aphanidermatum; experiment: Test M: bluegrass pythium blight, preventive spray on bluegrass seedlings; details: 200 ppm; 100 = 100% disease control, 0 = no control relative to controls
Source text: as §1, with “was sprayed to the point of run-off on bluegrass” for “was sprayed on grape”, “run-off on bluegrass seedlings.” for “sprayed on grape seedlings.”

[17] = tested on: Sclerotinia sclerotiorum; experiment: Test G: cucumber white mold, preventive spray on cucumber seedlings; details: 200 ppm; 100 = 100% disease control, 0 = no control relative to controls
Source text: as §1, with “was sprayed to the point of run-off on cucumber” for “was sprayed on grape”, “run-off on cucumber seedlings.” for “sprayed on grape seedlings.”

[18] = tested on: Phytophthora infestans; details: 200 ppm; 100 = 100% disease control, 0 = no control relative to controls
[19] = 200 ppm, 100 = 100% disease control, 0 = no control relative to controls

Compound | pest or weed control at 200 ppm [5] | pest or weed control at 200 ppm [6] | pest or weed control at 200 ppm [8] | pest or weed control at 200 ppm [9] | pest or weed control at 200 ppm [11] | Test J disease control rating [14] | Test L disease control rating [15] | Test M disease control rating [16] | Test G disease control rating [17] | Test K disease control rating [18] | other results
COC[C@H](C)Nc1nccc(-c2ncnc(Nc3cc(F)cc(F)c3)n2)n1 [Compound 22, N-(3,5-difluorophenyl)-4-[2-[[(1S)-2-methoxy-1-methylethyl]amino]-4-pyrimidinyl]-1,3,5-triazin-2-amine] | 99% | 99% | 36% | 100% | 100% |  |  |  |  |  | Test N disease control rating [1]: 99%; pest or weed control at 40 ppm ([2]; Blumeria graminis, 192 h, 40 ppm (marked *), read-out: Test A disease control rating): 69%; pest or weed control at 40 ppm [3]: 100%; Test Q disease control rating [4]: 100%; Test O disease control rating [7]: 99%; Test P disease control rating [10]: 100%; pest or weed control at 40 ppm ([12]; Botrytis cinerea, 120 h, 40 ppm (marked *), read-out: Test F disease control rating): 99%; Test R disease control rating [13]: 83%
COCC(C)Nc1nccc(-c2ccnc(Nc3cccc(Cl)c3)c2)n1 (stereo not shown) [Compound 40, 4-[2-[(3-chlorophenyl)amino]-4-pyridinyl]-N-(2-methoxy-1-methylethyl)-2-pyrimidinamine] | 48% | 90% | 27% | 84% | 99% | 0% | 0% | 0% | 83% | 0% | pest or weed control at 200 ppm ([2]; Blumeria graminis, 192 h, 200 ppm, 100 = 100% disease control, 0 = no control relative to controls, read-out: Test A disease control rating): 63%; pest or weed control at 200 ppm ([12]; Botrytis cinerea, 120 h, 200 ppm, 100 = 100% disease control, 0 = no control relative to controls, read-out: Test F disease control rating): 99%
COCC(C)Nc1nccc(-c2ccnc(Nc3cccc(F)c3)c2)n1 (stereo not shown) [Compound 41] |  |  |  |  |  | 34% | 0% | 0% | 94% | 0% | Test A disease control rating [2, 19]: 57%; Test E disease control rating [5, 19]: 45%; Test B disease control rating [6]: 98%; Test D disease control rating [8]: 15%; Test I disease control rating ([9]; 200 ppm): 54%; Test C disease control rating [11]: 99%; Test F disease control rating [12, 19]: 96%
